The target of this assay is T1, σ1-receptor (Cavia porcellus, UniProt Q60492).
T1 construct: guinea pig brains were homogenized; from tissue; host or cells: guinea pig brain membranes
Nature of the assay: Sigma-1 receptor binding assay, [3H](+)-pentazocine displacement in guinea pig brain membranes. The conditions noted are these: for inhibition at 0.01 µM: read-out: Sigma-1 Inhibition percent (0.01 μM); for inhibition at 0.1 µM: read-out: Sigma-1 Inhibition percent (0.1 μM). Here is the method: The following protocol was followed:
In brief, guinea pig brains were homogenized in 10 vols. (w/v) of Tris-HCl 50 mM 0.32 M sucrose, pH 7.4, with a Kinematica Polytron PT 3000 at 15000 r.p.m. for 30 s. The homogenate was centrifuged at 1000 g for 10 min at 4° C. and the supernatants collected and centrifuged again at 48000 g for 15 min at 4° C. The pellet was resuspended in 10 volumes of Tris-HCl buffer (50 mM, pH 7.4), incubated at 37° C. for 30 min, and centrifuged at 48000 g for 20 min at 4° C. Following this, the pellet was resuspended in fresh Tris-HCl buffer (50 mM, pH 7.4) and stored on ice until use.
Each assay tube contained 10 μL of [^3H](+)-pentazocine (final concentration of 0.5 nM), 900 μL of the tissue suspension to a final assay volume of 1 mL and a final tissue concentration of approximately 30 mg tissue net weight/mL. Non-specific binding was defined by addition of a final concentration of 1 μM haloperidol. […] Filters were then washed with four times with 4 mL of cold Tris-HCl buffer (50 mM, pH 7.4). Following addition of scintillation cocktail, the samples were allowed to equilibrate overnight.

The mark [1] stands for this setting: [3H](+)-pentazocine 0.5 nM, guinea pig brain membranes, read-out: Sigma-1 Ki (nm) Displ. 10^−7 M (10^−8 M).
Setting [2] is: compound at 0.01 μM, [3H](+)-pentazocine 0.5 nM, guinea pig brain membranes.
The mark [3] stands for this setting: compound at 0.1 μM, [3H](+)-pentazocine 0.5 nM, guinea pig brain membranes.

The structures appear in SMILES notation. Structures can show the parent of a compound that is named as a salt. Where two headings read alike, the source gives them in different places.

This passage reports Ki and inhibition results from patent publication US8349878B2 (Laboratorios del Dr. Esteve, S.A., priority 2006, dated 2013).

T1 sequence (Q60492 whole entry): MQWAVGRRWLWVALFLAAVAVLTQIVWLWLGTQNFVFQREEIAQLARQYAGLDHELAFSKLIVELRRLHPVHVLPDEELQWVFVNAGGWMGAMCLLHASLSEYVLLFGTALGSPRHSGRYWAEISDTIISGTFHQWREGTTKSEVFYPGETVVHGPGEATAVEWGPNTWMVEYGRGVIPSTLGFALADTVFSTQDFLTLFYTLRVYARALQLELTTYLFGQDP

A word on the Ki: it is a measure of affinity in units of concentration, obtained from inhibition or displacement. A word on the inhibition: it is the drop in the measured response relative to a control, in per cent. As to `Cc1nc([S+]([O-])CCN2CCCC2)nn1-c1ccc(Cl)c(Cl)c1` (stereo not shown) [compound 15, 1-[2-(1-(3,4-dichlorophenyl)-5-methyl-1H-1,2,4-triazol-3-yl-sulfinyl)ethyl]pyrrolidine], the Ki under setting [1] was 7 nM. Further, the inhibition at 0.01 µM under setting [2] worked out at 47.2%. Also, the inhibition at 0.1 µM under setting [3] stood at 88.9%.
With `Cc1nc(S(=O)(=O)CCCCN2CCOCC2)nn1-c1ccc(Cl)c(Cl)c1` [compound 21, 4-[4-(1-(3,4-Dichlorophenyl)-5-methyl-1H-1,2,4-triazol-3-yl-sulfonyl)-butyl]morpholine], under setting [2], the inhibition at 0.01 µM was determined as 8.3%. Besides, the inhibition at 0.1 µM under setting [3] was found to be 20.5%.
The matching figures for `CCN(CC)CCOc1nc(C)n(-c2ccc(Cl)c(Cl)c2)n1` [compound 23, 2-[1-(3,4-Dichlorophenyl)-5-methyl-1H-1,2,4-triazol-3-yloxy]-N,N-diethylethanamine]: 32.2% and 85%.
As to `Cc1nc(S(=O)(=O)CCN2CCCC2)nn1-c1ccc(Cl)c(Cl)c1` [compound 19], the Ki under setting [1] worked out at 2.2 nM. Further, the inhibition at 0.01 µM under setting [2] amounted to 71.8%. Besides, the inhibition at 0.1 µM under setting [3] was determined as 96.4%.
For `Cc1nc(SCCN2CCOCC2)nn1-c1ccc(Cl)c(Cl)c1` [compound 1, oxalate], in that order: 1.1 nM, 102% and 107%.
On to `Cc1nc(SCCN2CCCCCC2)nn1-c1ccc(Cl)c(Cl)c1` [compound 6, 1-[2-(1-(3,4-dichlorophenyl)-5-methyl-1H-1,2,4-triazol-3-yl-thio)ethyl]azepane oxalate], for which the inhibition at 0.01 µM under setting [2] stood at 90.6%. Further, under setting [3], the inhibition at 0.1 µM is 99.2%.
`Cc1nc([S+]([O-])CCCCN2CCC(c3ccccc3)CC2)nn1-c1ccc(Cl)c(Cl)c1` (stereo not shown) [compound 18, 1-[4-(1-(3,4-Dichlorophenyl)-5-methyl-1H-1,2,4-triazol-3-ylsulfinyl)butyl]-4-phenylpiperidine]: the inhibition at 0.01 µM under setting [2] is -39.5%. The inhibition at 0.1 µM under setting [3] amounted to 37.2%.
The matching figures for `Cc1nc(SCCCCCN2CCCC2)nn1-c1ccc(Cl)c(Cl)c1` [compound 14, 1-[5-(1-(3,4-dichlorophenyl)-5-methyl-1H-1,2,4-triazol-3-ylthio)pentyl]pyrrolidine oxalate]: 6% and 52.5%.
With `Cc1nc(OCCN2CCCC2)nn1-c1ccccc1` [compound 27, 1-[2-(5-methyl-1-phenyl-1H-1,2,4-triazol-3-yloxy)ethyl]pyrrolidine], the inhibition at 0.01 µM under setting [2] worked out at 8.1%. Also, under setting [3], the inhibition at 0.1 µM was 30.4%.
For `CCN(CC)CCSc1nc(C)n(-c2ccc(Cl)c(Cl)c2)n1` [compound 5, 2-(1-(3,4-dichlorophenyl)-5-methyl-1H-1,2,4-triazole-3-yl-thio]-N,N-diethyl ethanamine oxalate], under setting [1], the inhibition constant (Ki) came to 1.1 nM. In addition, the inhibition at 0.01 µM under setting [2] was determined as 104%. Further, under setting [3], the inhibition at 0.1 µM is 109%.
Regarding `Cc1nc(SCCCN2CCCC2)nn1-c1ccc(Cl)c(Cl)c1` [compound 8, 1-[3-(1-(3,4-dichlorophenyl)-5-methyl-1H-1,2,4-triazol-3-yl-thio)propyl]-4-pyrrolidine oxalate], under setting [1], the Ki is 2.1 nM. For the same compound, the inhibition at 0.01 µM under setting [2] was found to be 57.4%. Also, the inhibition at 0.1 µM under setting [3] came out at 82.5%.
In the case of `Cc1nc(OCCN2CCCCC2)nn1-c1ccccc1` [compound 29, 1-[2-(5-methyl-1-phenyl-1H-1,2,4-triazol-3-yloxy)ethyl]piperidine], the inhibition at 0.01 µM under setting [2] was 5.8%. Moreover, the inhibition at 0.1 µM under setting [3] stood at 46.1%.
The matching figures for `Cc1nc(OCCN2CCOCC2)nn1-c1ccc(Cl)c(Cl)c1` [compound 25, 4-[2-(1-(3,4-Dichlorophenyl)-5-methyl-1H-1,2,4-triazol-3-yloxy)ethyl]morpholine oxalate]: 33.8% and 83.8%.
For the compound `Cc1nc(SCCCN2CCOCC2)nn1-c1ccc(Cl)c(Cl)c1` [compound 7, 4-[3-(1-(3,4-Dichlorophenyl)-5-methyl-1H-1,2,4-triazol-3-ylthio)propyl]morpholine oxalate], the Ki under setting [1] was 8.2 nM. Moreover, the inhibition at 0.01 µM under setting [2] turned out to be 67.8%. Besides, the inhibition at 0.1 µM under setting [3] was determined as 85.5%.
On to `CCN(CC)CCOc1nc(C)n(-c2ccccc2)n1` [compound 26, 2-(5-methyl-1-phenyl-1H-1,2,4-triazol-3-yloxy)-N,N-diethyl ethanamine], for which the inhibition at 0.01 µM under setting [2] stood at 7.3%. The inhibition at 0.1 µM under setting [3] worked out at 15.2%.
For `Cc1nc(OCCCCN2CCOCC2)nn1-c1ccccc1` [compound 30, 4-[4-(5-methyl-1-phenyl-1H-1,2,4-triazol-3-yloxy)butyl]morpholine], in that order: -15.1% and 18.3%.
Regarding `Cc1nc(OCCN2CCCC2)nn1-c1ccc(Cl)c(Cl)c1` [compound 24, 1-[2-(1-(3,4-Dichlorophenyl)-5-methyl-1H-1,2,4-triazol-3-yloxy)ethyl]pyrrolidine], under setting [2], the inhibition at 0.01 µM was 39.5%. Moreover, the inhibition at 0.1 µM under setting [3] turned out to be 91.8%.
Take `Cc1nc([S+]([O-])CCN(C(C)C)C(C)C)nn1-c1ccc(Cl)c(Cl)c1` (stereo not shown) [compound 17]: the Ki was 4 nM, the inhibition at 0.01 µM stood at 62.3% and the inhibition at 0.1 µM came out at 93.9%.
Consider `Cc1nc([S+]([O-])CCN2CCOCC2)nn1-c1ccc(Cl)c(Cl)c1` (stereo not shown) [compound 16, 4-[2-(1-(3,4-dichlorophenyl)-5-methyl-1H-1,2,4-triazol-3-yl-sulfinyl)-ethyl]-morpholine], for which, under setting [2], the inhibition at 0.01 µM is 28.6%. Under setting [3], the inhibition at 0.1 µM worked out at 42%.
For `Cc1nc(SCCCN2CCC(c3ccccc3)CC2)nn1-c1ccc(Cl)c(Cl)c1` [compound 9, 1-[3-(1-(3,4-dichlorophenyl)-5-methyl-1H-1,2,4-triazol-3-ylthio)propyl]-4-phenylpiperidine oxalate], the Ki under setting [1] worked out at 9 nM. The inhibition at 0.01 µM under setting [2] came out at 74.2%. Besides, the inhibition at 0.1 µM under setting [3] was determined as 89%.
The matching figures for `Cc1nc(SCCN2CCCC2)nn1-c1ccc(Cl)c(Cl)c1` [compound 3, oxalate]: 1.4 nM, 103% and 106%.
Consider `Cc1nc(SCCCCCN2CCOCC2)nn1-c1ccc(Cl)c(Cl)c1` [compound 13, 4-[5-(1-(3,4-Dichlorophenyl)-5-methyl-1H-1,2,4-triazol-3-ylthio)pentyl]morpholine oxalate], for which, under setting [2], the inhibition at 0.01 µM came to 4.3%. In addition, the inhibition at 0.1 µM under setting [3] worked out at 58.2%.
The matching figures for `Cc1nc(SCCCCN2CCC(c3ccccc3)CC2)nn1-c1ccc(Cl)c(Cl)c1` [compound 10, 1-[4-(1-(3,4-dichlorophenyl)-5-methyl-1H-1,2,4-triazol-3-yl-thio)butyl]-4-phenylpiperidine oxalate]: 27.3% and 88.1%.
Consider `Cc1nc(SCCN(C(C)C)C(C)C)nn1-c1ccc(Cl)c(Cl)c1` [compound 4, oxalate], for which the inhibition constant (Ki) was found to be 1.1 nM, the inhibition at 0.01 µM was 105% and the inhibition at 0.1 µM came out at 109%.
For `CCN(CC)CCS(=O)(=O)c1nc(C)n(-c2ccc(Cl)c(Cl)c2)n1` [compound 20, 2-[1-(3,4-Dichlorophenyl)-5-methyl-1H-1,2,4-triazol-3-ylsulfonyl]-N,N-diethylethanamine], the inhibition constant Ki under setting [1] stood at 16.7 nM. Moreover, the inhibition at 0.01 µM under setting [2] came to 51.2%. Also, the inhibition at 0.1 µM under setting [3] came to 82.1%.
The matching figures for `Cc1nc(OCCN2CCCCC2)nn1-c1ccc(Cl)c(Cl)c1` [compound 22]: 3.1 ± 1.6 nM, 54.3% and 94.8%.
Take `Cc1nc(SCCCCN2CCOCC2)nn1-c1ccc(Cl)c(Cl)c1` [compound 11, 4-[4-(1-(3,4-dichlorophenyl)-5-methyl-1H-1,2,4-triazol-3-yl-thio)butyl]morpholine oxalate]: under setting [2], the inhibition at 0.01 µM turned out to be 14.5%. Moreover, under setting [3], the inhibition at 0.1 µM amounted to 66.9%.
As to `Cc1nc(OCCN2CCOCC2)nn1-c1ccccc1` [compound 28, 4-[2-(5-methyl-1-phenyl-1H-1,2,4-triazol-3-yloxy)ethyl]morpholine], under setting [2], the inhibition at 0.01 µM is -20.9%. In addition, the inhibition at 0.1 µM under setting [3] was -3.4%.
Consider `Cc1nc(SCCN2CCCCC2)nn1-c1ccc(Cl)c(Cl)c1` [compound 2, 1-[2-(3,4-dichlorophenyl)-5-methyl-1H-1.2.4-triazole-3-yl-thioethyl]piperidine oxalate], for which the inhibition constant Ki under setting [1] was determined as 0.8 nM. Moreover, the inhibition at 0.01 µM under setting [2] was 105%. In addition, the inhibition at 0.1 µM under setting [3] worked out at 109%.
Regarding `Cc1nc(SCCCCCN2CCCCC2)nn1-c1ccc(Cl)c(Cl)c1` [compound 12, 1-[5-(1-(3,4-dichlorophenyl)-5-methyl-1H-1,2,4-triazol-3-ylthio)pentyl]piperidine oxalate], under setting [2], the inhibition at 0.01 µM stood at 52.1%. Further, the inhibition at 0.1 µM under setting [3] was 82.8%.
